From ChEMBL document CHEMBL4052777, “Synthesis of novel hybrids of pyrazole and coumarin as dual inhibitors of COX-2 and 5-LOX” (Bioorg Med Chem Lett, 2017) come the findings set out here.

The test system of one test is SMMC-7721. Description: Antiproliferative activity against human SMMC7721 cells after 48 hrs by MTT assay. The test is classed as functional, cell-based. The following applies: SMMC-7721, 48 h.
For a further test, the system named is HEK-293T. Description: Antiproliferative activity against human 293T cells after 48 hrs by MTT assay. Type of test: cell-based.
Another test deals with HT-29. Description: cells. The conditions noted are these: Homo sapiens, HT-29, 48 h.
For another test, the system named is HeLa. Description: cells. The conditions noted are these: Homo sapiens, 48 h.
A further test relates to A549. The experiment in a line: cells. The following applies: Homo sapiens, A549, 48 h.

Each structure is given as a SMILES string.

Description for HT-29: Antiproliferative activity against human HT-29 cells after 48 hrs by MTT assay

In the case of `Cc1ccc(-c2cc(C(F)(F)F)nn2-c2ccc(S(N)(=O)=O)cc2)cc1` [CELECOXIB], the IC50 was 5.96 µM with SMMC-7721; 112 µM in the test with HEK-293T; 8.47 µM in the test on HT-29; 11.1 µM in the test with HeLa; 7.68 µM in the test on A549.
Consider `O=c1ccc2ccc(O)cc2o1` [UMBELLIFERONE], for which the IC50 was determined as 19.9 µM with SMMC-7721; 190 µM in the test with HEK-293T; 22.7 µM in the test on HT-29; 42.4 µM with HeLa; 21.1 µM in the test with A549.
